This note sets out measurements from patent US8871741B2, “Inhibition of TNF-α induced activation of NFKB by pentosan polysulfate” (Icahn School of Medicine at Mount Sinai, priority 2010, dated 2014).

In one series the test system is proximal tubular cells. The following applies: for cell death: wild type proximal tubular cells, 24 hours. As for the experimental part: To determine if CHOP played a role in ER stress induced renal cell death, primary proximal tubular cells were isolated from 2 month-old CHOP^−/− and wild type mice using a method described by Sheridan et al. (Am J Physiol 1993, 265:F342-350). Briefly, kidneys were perfused with a phosphate buffer solution and dynabead M-450 (5×10^5 beads/ml, Invitrogen, LA, CA). Cortices were then cut to small pieces and incubated with 0.1% collagenase and 100 u/ml DNase at 37° C. for 40 minutes. After pressing tissues through a 100 μm cell strainer (BD Biosciences, Bedford, Mass.) with a syringe plunger, glomeruli were removed by a magnetic concentrator. The remaining tissues were collected with a 40 μm cell strainer, washed and cultured with medium containing DMEM/F12 (1:1), 5 μg/ml transferrin, 5 μg/ml insulin, 50 nM hydrocortisone, 5% FBS, 100 u/ml each of penicillin and streptomycin. […] […] 24 hours later, cells were gently washed and stained with trypan blue, the number of live cells from each well was counted.

The next series concerns MMP-2. Description: Zymography of U937 cell supernatants, MMP-2. Format: cell-based, human. The following applies: U937 cells, heparin 100 μg/ml. As to the method:
Human pro-monocytic U937 cells were obtained from American Type Culture Collection (Manassas, Va.) and grown in RPMI medium supplemented with 10% FBS. U937 cells were plated in six-well plates at a density of 5×10^6 cells/ml. The cells were then stimulated with 10 ng/ml TNF-α, in the presence or absence of either increasing concentrations of PPS (10-100 μg/ml) or heparin (100 μg/ml), and incubated at 37° C. for 3 hours. Following stimulation, cells were placed in 0.1% BSA-serum-free medium for 16-18 hours. The media was then collected, centrifuged, and supernatants were stored at −80° C. for the assessment of MMP activity. The cell number was determined by direct cell counting.
MMP activity in aortic extracts and conditioned media from monocytes was assessed, as previously described (Jacot T A, et al., Lab Invest. 1996; 75:791-79). Briefly, aortic segments were homogenized and extracted in RIPA buffer (25 mM Tris, pH 7.4, 150 mM KCl, 5 mM EDTA, 1% Nonidet P-40, 0.5% sodium deoxycholate, and 0.1% SDS). Insoluble material was precipitated by centrifugation, and soluble extracts were collected and stored at −20° C. for further analysis. For in vitro experiments, cell supernatants were centrifuged to remove cellular debris, and diluted appropriately to normalize for cell number. Aortic extracts and conditioned media were then mixed with sample buffer (1% SDS, 0.08 M Tris pH 6.8, 4% glycerol, and 0.006% bromophenol blue), and loaded onto a 10% gelatin polyacrylamide gel, and processed as described (Jacot T A, et al., Lab Invest. 1996; 75:791-79). For reverse zymography, samples were loaded onto a 15% gelatin polyacrylamide gel containing 0.5% porcine gelatin and 6 μg recombinant gelatinase A, and processed as described (Elliot S J, et al., J Am Soc Nephrol. 1999; 10: 62-68).

In another series the test system is podocytes. Description: Albumin permeability of podocyte monolayers (FITC-labeled BSA flux). Format: cell-based. The conditions noted are these: 2 hours after TNFα treatment (20 ng/ml). As to the method: 1×10^5 podocytes were seeded onto collagen-coated transwell filters ([…] pore-size, Corning, N.Y., N.Y.) placed in the top chamber of each well of a 24-well plate. After cells reached confluence, some wells of cells were treated with TNFα (20 ng/ml), PPS (400 μg/ml), or PPS plus TNFα in 2% FBS medium for 8 hours. Then the medium from both the top and bottom chamber was completely removed, cells were washed twice with PBS and the top chamber was refilled with 0.2 ml 2% FBS medium supplemented with 0.5 mg/ml FITC-labeled BSA (Sigma Aldrich, St Louis, […].), while the bottom chamber was refilled with 0.6 ml 2% FBS medium supplemented with 0.5 mg/ml unlabeled BSA. At different time points, 100 μl aliquots were collected from the bottom chamber and fluorescence was measured by a fluorescence spectrophotometer (485 nm excitation, 535 nm emission). The concentration of FITC-BSA passing through the monolayer was determined by reference to a set of standard dilutions of FITC-BSA. The value of albumin flux through untreated monolayer was arbitrarily defined as 100%.

In series [1] the test system is MCP-1, RANTES, CXCL1, MIP-2, ICAM-1, and iNOS mRNA. As to the kind of experiment: TNFα induced pro-inflammatory gene expression in proximal tubular cell line, real-time PCR. In kind it is cell-based, mouse. The conditions noted are these: TNFα 10 ng/ml, 4 hours, control defined as 1. As to the method:
A proximal tubular cell line obtained from mice transgenic for SV40 T antigen was grown in DMEM containing 10% FBS. For the measurement of TNFα-stimulated gene expression, 1×10^5 proximal tubular cells were transferred to each well of a 6-well-plate. After placing the cells in 0.1% FBS medium for 24 hours, 10 ng/ml of TNFα was added to test wells. Total RNA was isolated from all wells 4 hours later. MCP-1, RANTES, CXCL1, MIP-2, ICAM-1, and iNOS mRNA levels were determined by real-time PCR as described above and corrected by β-actin mRNA levels. TNFα stimulated MCP-1 and RANTES production and release into the medium was measured in TNFα (10 ng/ml) treated and control cells at 24 hours. The amount of MCP-1 or RANTES in the medium was measured by ELISA (Invitrogen Corporation (Carlsband, Calif.).
To determine the effect of PPS on TNFα induced upregulation of proinflammatory genes, proximal tubular cells were pre-treated with PPS (200 μg/ml) for 1 hour before the addition of TNFα (10 ng/ml). MCP-1, RANTES, CXCL1, MIP-2, ICAM-1, and iNOS mRNA levels were determined 4 hours later by real-time PCR. MCP-1 and RANTES production was also measured.

Read-outs that look alike come from different tables or passages of the source.

tunicamycin: the apoptotic cell death result with proximal tubular cells (proximal tubular cells exposed to inducers of oxidative stress or ER stress) was “dose dependent increase”. Besides, the cell death in the series on proximal tubular cells (0.6 μg/ml of tunicamycin) came to 38%; in the series with proximal tubular cells (1.2 μg/ml of tunicamycin), 89%. With `OO` [H2O2, hydrogen peroxide], the apoptotic cell death result in the series on proximal tubular cells is “dose dependent increase”. Consider heparin, for which, in the series on MMP-2, the “effect of heparin treatment on MMP-2 activity compared with the PPS effect” value is reported as “comparable”.

TNFα: the “increase in the amount of FITC-labeled albumin that passed through a monolayer of podocytes” value with podocytes is 34%. Also, the “fold increase in mRNA expression of MCP-1, RANTES, CXCL-1, MIP-2, ICAM-1 and iNOS” value in series [1] is 2-9 fold.
